From article PMC7612645 (2021) come the findings set out here.

For this assay, the system named is US (RNA, single strand) UUUUUACCUAUCUCUUUUUCUCU
Nature of the assay: SPR. As to conditions: 250 mM NaCl; 20 mM HEPES pH 7.5, 2% DMSO, 0.1% Tween20, 37 °C; trace shown at 40 nM compound.

The structures appear in SMILES notation.

For `Cc1nc2nc(CN)nn2c(C)c1CCC(=O)Nc1ccc(F)c(Cl)c1`, the binding entry is given as “no”.
